Assay results as given in ChEMBL document CHEMBL3593229, “Identification of a potent 5-phenyl-thiazol-2-ylamine-based inhibitor of FLT3 with activity against drug resistance-conferring point mutations” (Eur J Med Chem, 2015).

How the values were obtained:
[1] = biological target: Platelet-derived growth factor receptor alpha (Homo sapiens) (UniProt P16234); test: Inhibition of human PDGFRalpha at 0.1 uM relative to control
[2] = biological target: Tyrosine-protein kinase Lck (Homo sapiens) (UniProt P06239); test: Inhibition of human LCK at 0.1 uM relative to control
Chain of Tyrosine-protein kinase Lck (Homo sapiens) (P06239 2-509 limits assumed): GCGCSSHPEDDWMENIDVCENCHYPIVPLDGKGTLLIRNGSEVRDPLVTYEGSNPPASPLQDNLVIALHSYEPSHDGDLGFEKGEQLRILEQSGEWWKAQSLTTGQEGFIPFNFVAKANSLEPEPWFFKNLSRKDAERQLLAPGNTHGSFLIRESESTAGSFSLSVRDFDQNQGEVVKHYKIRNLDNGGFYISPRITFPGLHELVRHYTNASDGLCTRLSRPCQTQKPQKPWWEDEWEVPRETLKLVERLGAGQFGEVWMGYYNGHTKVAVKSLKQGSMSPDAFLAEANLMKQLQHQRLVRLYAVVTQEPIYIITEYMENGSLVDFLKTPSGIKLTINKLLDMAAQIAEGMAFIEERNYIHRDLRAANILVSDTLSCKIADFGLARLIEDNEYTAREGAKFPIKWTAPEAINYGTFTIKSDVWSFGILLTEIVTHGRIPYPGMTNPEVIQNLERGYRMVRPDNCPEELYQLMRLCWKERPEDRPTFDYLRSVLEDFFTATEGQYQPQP

[3] = biological target: Dual specificity protein kinase CLK1 (Homo sapiens) (UniProt P49759); test: Inhibition of human CLK1 at 0.1 uM relative to control
Chain of Dual specificity protein kinase CLK1 (Homo sapiens) (P49759 whole entry, looked up): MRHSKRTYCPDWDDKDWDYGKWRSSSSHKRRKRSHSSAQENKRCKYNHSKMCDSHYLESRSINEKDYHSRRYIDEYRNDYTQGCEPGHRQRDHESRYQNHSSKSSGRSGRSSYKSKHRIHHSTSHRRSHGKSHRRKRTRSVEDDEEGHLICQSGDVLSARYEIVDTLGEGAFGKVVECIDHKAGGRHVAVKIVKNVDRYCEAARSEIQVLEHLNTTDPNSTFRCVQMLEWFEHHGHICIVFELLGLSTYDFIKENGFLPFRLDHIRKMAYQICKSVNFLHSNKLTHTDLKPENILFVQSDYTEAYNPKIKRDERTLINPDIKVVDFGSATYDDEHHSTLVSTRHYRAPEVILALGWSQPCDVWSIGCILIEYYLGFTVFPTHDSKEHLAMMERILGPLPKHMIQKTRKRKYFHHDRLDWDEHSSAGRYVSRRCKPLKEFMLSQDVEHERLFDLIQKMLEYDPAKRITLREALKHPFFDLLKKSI

[4] = biological target: Ribosomal protein S6 kinase alpha-3 (Homo sapiens) (UniProt P51812); test: Inhibition of human RSK2 at 0.1 uM relative to control
Chain of Ribosomal protein S6 kinase alpha-3 (Homo sapiens) (P51812 whole entry): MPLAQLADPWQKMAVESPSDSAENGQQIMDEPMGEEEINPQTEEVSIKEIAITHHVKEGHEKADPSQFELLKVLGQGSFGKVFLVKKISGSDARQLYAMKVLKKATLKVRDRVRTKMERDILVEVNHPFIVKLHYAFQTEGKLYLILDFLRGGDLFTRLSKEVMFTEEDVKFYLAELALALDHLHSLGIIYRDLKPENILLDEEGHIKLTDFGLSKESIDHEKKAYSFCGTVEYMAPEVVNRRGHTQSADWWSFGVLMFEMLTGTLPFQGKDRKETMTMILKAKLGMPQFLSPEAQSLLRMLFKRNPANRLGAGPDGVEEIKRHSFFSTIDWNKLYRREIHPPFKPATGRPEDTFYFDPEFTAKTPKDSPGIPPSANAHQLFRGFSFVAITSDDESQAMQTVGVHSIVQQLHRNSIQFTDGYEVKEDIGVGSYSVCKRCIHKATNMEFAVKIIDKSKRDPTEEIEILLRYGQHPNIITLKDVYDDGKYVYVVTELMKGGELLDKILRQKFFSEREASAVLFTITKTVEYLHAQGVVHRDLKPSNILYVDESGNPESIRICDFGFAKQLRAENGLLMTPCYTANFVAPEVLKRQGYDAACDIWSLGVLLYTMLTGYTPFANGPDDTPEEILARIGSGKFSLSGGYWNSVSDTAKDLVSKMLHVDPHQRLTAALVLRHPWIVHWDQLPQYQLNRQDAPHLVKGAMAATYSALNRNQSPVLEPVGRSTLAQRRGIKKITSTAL

[5] = Cmax in ICR mouse at 10 mg/kg, po; type: ADME, organism-based; design: dose 10 mg/kg, route oral; conditions: in vivo

Chain of Platelet-derived growth factor receptor alpha (Homo sapiens) (P16234 whole entry): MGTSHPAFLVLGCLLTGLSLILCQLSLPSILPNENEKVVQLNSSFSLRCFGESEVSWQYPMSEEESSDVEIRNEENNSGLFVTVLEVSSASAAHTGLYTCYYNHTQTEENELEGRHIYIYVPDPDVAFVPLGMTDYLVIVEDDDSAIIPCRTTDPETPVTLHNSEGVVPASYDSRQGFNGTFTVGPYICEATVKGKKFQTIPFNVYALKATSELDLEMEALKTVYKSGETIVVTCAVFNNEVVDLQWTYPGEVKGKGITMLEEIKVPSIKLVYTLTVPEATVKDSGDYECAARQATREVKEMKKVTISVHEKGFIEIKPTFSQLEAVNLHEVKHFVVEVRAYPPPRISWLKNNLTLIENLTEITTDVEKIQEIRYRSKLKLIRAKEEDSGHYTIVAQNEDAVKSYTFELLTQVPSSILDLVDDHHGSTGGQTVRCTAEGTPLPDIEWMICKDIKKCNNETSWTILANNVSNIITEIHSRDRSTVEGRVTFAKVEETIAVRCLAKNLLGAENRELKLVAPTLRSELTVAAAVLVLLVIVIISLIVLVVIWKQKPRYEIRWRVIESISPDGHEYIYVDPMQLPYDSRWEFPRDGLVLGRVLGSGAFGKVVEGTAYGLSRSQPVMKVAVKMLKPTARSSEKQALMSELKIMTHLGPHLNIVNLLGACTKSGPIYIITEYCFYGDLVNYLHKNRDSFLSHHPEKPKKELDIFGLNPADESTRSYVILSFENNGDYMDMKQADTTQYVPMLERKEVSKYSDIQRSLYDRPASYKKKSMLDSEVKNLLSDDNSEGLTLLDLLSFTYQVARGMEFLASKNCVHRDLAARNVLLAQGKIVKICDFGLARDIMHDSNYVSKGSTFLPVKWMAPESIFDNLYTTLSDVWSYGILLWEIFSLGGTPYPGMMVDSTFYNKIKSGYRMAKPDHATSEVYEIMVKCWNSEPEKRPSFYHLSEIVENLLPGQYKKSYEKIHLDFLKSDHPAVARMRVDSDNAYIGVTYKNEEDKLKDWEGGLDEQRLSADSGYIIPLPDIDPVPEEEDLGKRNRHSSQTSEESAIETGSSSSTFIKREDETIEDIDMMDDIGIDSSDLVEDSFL

In the case of `CCc1cc(NC(=O)Nc2ccc(-c3cnc(Nc4cc(N5CCN(CC)CC5)nc(C)n4)s3)cc2)no1`, the inhibition [1] is reported as 98%, the inhibition [2] is reported as 92% and the inhibition [3] is reported as 5%. It also gave an inhibition [4] of -1% and a Cmax [5] of 168 ng/mL.
